Experimental data reported in patent publication US20250000870A1, “Pharmaceutical Combinations for Treating Cancer” (Cellestia Biotech AG, priority 2021, published 2025).
Structures can show the parent of a compound that is named as a salt.

Experiments:
Format in all cases: cell-based, Human
Conditions in all cases: Drug 2 in combination with 6-(4-(tert-butyl)phenoxy)pyridin-3-amine (Drug 1), 72 hours
RPMI-8402 leukemic cells [1] = assay: alamarBlue combination screening with 6-(4-(tert-butyl)phenoxy)pyridin-3-amine, ZIP synergy analysis
Procedure: (§1) The kinase inhibitors listed in table 1 were used in combination with 6-(4-(tert-butyl) phenoxy)pyridin-3-amine.
(§2) Cells were treated with a combination of 6-(4-(tert-butyl) phenoxy)pyridin-3-amine (concentration range from 150 nM to […]) and chemical compounds listed in table 1 (concentration range from 75 nM to 20 μM) for 72 hours. Concentration range used for each compound was determined based on individual IC50 values i.e concentration range selected flanks IC50 value of each compound. Each of the 8 compounds were combined with 6-(4-(tert-butyl) phenoxy)pyridin-3-amine at different concentrations generating an 8×10 matrix in duplicates, alamarBlue® readout was taken using Infinite® F500 (Tecan) plate reader. All volumes (cells and alamarBlue®) were dispensed using Multidrop Combi dispenser using a standard cassette (Speed MEDIUM).
(§3) Compound management and dispensing: All compounds were prepared as stock solution at 10 mM in pure DMSO. […] To create 384 well working plates, different volumes of stock solutions were plated into 384 well plates by using ECHO 550 acoustic dispenser (Labcyte) to generate the final concentration of interest for each drug, either alone or in matrix combination.
(§4) alamarBlue® viability assay: alamarBlue® proliferation assays were performed to determine the growth kinetics of compound treated cells, alamarBlue® consists of a cell permeable substrate resazurin. In metabolically active and proliferating cells, resazurin is converted to resorufin due to an intrinsic reducing power of live cells and produces a red fluorescence. Therefore, production of resorufin serves as an indicator of the viability of the cell population. Proliferation assays were performed by seeding 1500 cells/well in 384 well plate format. Cells were treated in duplicates with pre-determined concentration of compounds as a single agent or in combination with 6-(4-(tert-butyl) phenoxy)pyridin-3-amine for 72 hours. To determine growth kinetics, alamarBlue® (Invitrogen) was added to each well and incubated for 4 hours, alamarBlue® readout was taken using Infinite® F500 (Tecan) plate reader.
(§5) Data analysis for combination screening: Synergistic interaction analysis was performed using SynergyFinder software as described by Ianevski A, He L, Aittokallio T, Tang J. Bioinformatics. […] To mitigate the impact of edge-effects, correction was applied for all analyses. Regions of interest were defined as concentration combination showing both synergistic interaction and significant absolute activity (>60%).

[2] = system: HCC1187 triple negative breast cancer cells; assay: as above
Procedure: as §1, §2, §3, §4, §5

[3] = system: MCF-7 ER+ breast cancer cells; assay: as above
Procedure: as §1, §2, §3, §4, §5

RPMI-8402 leukemic cells [4] = assay: PrestoBlue combination screening with 6-(4-(tert-butyl)phenoxy)pyridin-3-amine, ZIP synergy analysis
Procedure: (§6) Cell lines and drug combinations: Human T-ALL, AML and breast cancer cell lines RPMI-8402, MV-4-11 and HCC1187 were cultured under mycoplasma free conditions at 37° C. in RPMI-1640 media supplemented with 10% FCS (RPMI-8402 and HCC1187 cells) and IMDM media supplemented with 10% FCS (MV-4-11 cells). The kinase inhibitors listed in table 5 were used in combination with 6-(4-(tert-butyl) phenoxy)pyridin-3-amine.
(§7) 6-(4-(tert-butyl) phenoxy)pyridin-3-amine combination screening: Human cancer cells RPMI-8402, MV-4-11 and HCC1187 were seeded at a density of 10′000 cells/well in 96 well plate format and cultured in 100 μl of growth media. Cells were treated with a combination of 6-(4-(tert-butyl) phenoxy)pyridin-3-amine (concentration range from 30 nM to 100 μM) and chemical compounds listed in table 5 (concentration range from 1 μM to 100 μM) for 72 hours. Concentration range used for each compound was determined based on individual IC50 values i.e concentration range selected flanks IC50 value of each compound. Each of the 2 compounds were combined with 6-(4-(tert-butyl) phenoxy)pyridin-3-amine at different concentrations generating an 6×9 matrix in duplicates. PrestoBlue® readout was taken using Sense (Hidex) plate reader.
(§8) PrestoBlue® viability assay: PrestoBlue® proliferation assays were performed to determine the growth kinetics of compound treated cells. PrestoBlue® consists of a cell permeable substrate resazurin. In metabolically active and proliferating cells, resazurin is converted to resorufin due to an intrinsic reducing power of live cells and produces a red fluorescence. Therefore, production of resorufin serves as an indicator of the viability of the cell population. Proliferation assays were performed by seeding 10′000 cells/well in 96 well plate format. Cells were treated in triplicates (single agent) or duplicates (combinations) with pre-determined concentration of compounds as a single agent or in combination with 6-(4-(tert-butyl) phenoxy)pyridin-3-amine for 72 hours. To determine growth kinetics, PrestoBlue® (Invitrogen) was added to each well and incubated for 4 hours. PrestoBlue® readout was taken using Sense (Hidex) plate reader.
(§9) Data analysis for combination screening: Synergistic interaction analysis was performed using SynergyFinder software as described by Ianevski A, He L, Aittokallio T, Tang J. Bioinformatics. 2017 Aug. 1;33 (15): 2413-2415. doi: 10.1093/bioinformatics/btx162.SynergyFinder: a web application for analyzing drug combination dose-response matrix data). […] Regions of interest were defined as concentration combination showing both synergistic interaction and significant absolute activity (>60%).

[5] = system: HCC1187 triple negative breast cancer cells; assay: as above
Procedure: as §6, §7, §8, §9

MV-4-11 leukemic cells = assay: as above
Procedure: as §6, §7, §8, §9

CC[C@H](Nc1ncnc2[nH]cnc12)c1nc2cccc(F)c2c(=O)n1-c1ccccc1 [Idelalisib, 5-Fluor-3-phenyl-2-{(1S)-1-[(7H-purin-6-yl)amino]propyl}chinazolin-4 (3H)-on]
Conclusion (RPMI-8402 leukemic cells [1]): Synergistic (>0 implies synergistic interaction)
ZIP score (RPMI-8402 leukemic cells [1]): 1.12

C[C@@H](Oc1cc(-c2cnn(C3CCNCC3)c2)cnc1N)c1c(Cl)ccc(F)c1Cl [Crizotinib, 3-[(1R)-1-(2,6-dichloro-3-fluorophenyl)ethoxy]-5-[1-(4-piperidinyl)-1H-pyrazol-4-yl]-2-pyridinamine]
Conclusion (RPMI-8402 leukemic cells [1]): Synergistic (>0 implies synergistic interaction)
ZIP score (RPMI-8402 leukemic cells [1]): 2.38
Conclusion [2]: No (0 implies no interaction)
ZIP score [2]: 0.10

Cn1c(=O)n(-c2ccc(C(C)(C)C#N)cc2)c2c3cc(-c4cnc5ccccc5c4)ccc3ncc21 [BEZ235, 4-[2,3-dihydro-3-methyl-2-oxo-8-(3-quinolinyl)-1H-imidazo[4,5-c]quinolin-1-yl]-a,a-dimethyl-benzeneacetonitrile]
Conclusion (RPMI-8402 leukemic cells [1]): Synergistic (>0 implies synergistic interaction)
ZIP score (RPMI-8402 leukemic cells [1]): 7.20
Conclusion [2]: Synergistic (>0 implies synergistic interaction)
ZIP score [2]: 13.94
Conclusion [3]: Synergistic (>0 implies synergistic interaction)
ZIP score [3]: 17.40

O=C(Nc1c[nH]nc1-c1nc2cc(CN3CCOCC3)ccc2[nH]1)NC1CC1 [AT9283, N-Cyclopropyl-N′-[3-[6-(4-morpholinylmethyl)-1H-benzimidazol-2-yl]-1H-pyrazol-4-yl]-urea]
Conclusion (RPMI-8402 leukemic cells [1]): Synergistic (>0 implies synergistic interaction)
ZIP score (RPMI-8402 leukemic cells [1]): 12.40
Conclusion [2]: Synergistic (>0 implies synergistic interaction)
ZIP score [2]: 12.99
Conclusion [3]: Synergistic (>0 implies synergistic interaction)
ZIP score [3]: 8.38

CNC(=O)c1ccccc1Sc1ccc2c(/C=C/c3ccccn3)n[nH]c2c1 [Axitinib, N-Methyl-2-[[3-[(E)-2-pyridin-2-ylethenyl]-1H-indazol-6-yl]sulfanyl]benzamide]
Conclusion (RPMI-8402 leukemic cells [4]): Synergistic (>0 implies synergistic interaction)
Conclusion [5]: Synergistic (>0 implies synergistic interaction)
Conclusion (MV-4-11 leukemic cells): Synergistic (>0 implies synergistic interaction)

CC(C)c1cc(CNc2nc(Nc3cc(C4CC4)[nH]n3)cc(N3CCN(C)CC3)n2)on1 [XL228, N4-(5-cyclopropyl-1H-pyrazol-3-yl)-N2-[[3-(1-methylethyl)-5-isoxazolyl]methyl]-6-(4-methyl-1-piperazinyl)-2,4-pyrimidinediamine]
Conclusion (RPMI-8402 leukemic cells [1]): Synergistic (>0 implies synergistic interaction)
ZIP score (RPMI-8402 leukemic cells [1]): 15.0
Conclusion [2]: Synergistic (>0 implies synergistic interaction)
ZIP score [2]: 23.67
Conclusion [3]: Synergistic (>0 implies synergistic interaction)
ZIP score [3]: 21.86

CC#CC(=O)N1CCC[C@H]1c1nc(-c2ccc(C(=O)Nc3ccccn3)cc2)c2c(N)nccn12 [Acalabrutinib, 4-[8-amino-3-[(2S)-1-(1-oxo-2-butyn-1-yl)-2-pyrrolidinyl]imidazo[1,5-a]pyrazin-1-yl]-N-2-pyridinyl-benzamide]
Conclusion (RPMI-8402 leukemic cells [1]): Synergistic (>0 implies synergistic interaction)
ZIP score (RPMI-8402 leukemic cells [1]): 0.70
Conclusion [2]: Synergistic (>0 implies synergistic interaction)
ZIP score [2]: 3.33
Conclusion [3]: Synergistic (>0 implies synergistic interaction)
ZIP score [3]: 6.86

COc1cc2nccc(Oc3ccc(NC(=O)NC4CC4)c(Cl)c3)c2cc1C(N)=O [Lenvatinib, 4-(3-chloro-4-(3-cyclopropylureido)phenoxy)-7-methoxyquinoline-6-carboxamide]
Conclusion (RPMI-8402 leukemic cells [4]): Synergistic (>0 implies synergistic interaction)
ZIP score (RPMI-8402 leukemic cells [4]): 41.4
Conclusion [5]: Synergistic (>0 implies synergistic interaction)
ZIP score [5]: 11.2
Conclusion (MV-4-11 leukemic cells): Synergistic (>0 implies synergistic interaction)
ZIP score (MV-4-11 leukemic cells): 5.9

NC1(c2ccc(-c3nc4ccn5c(=O)[nH]nc5c4cc3-c3ccccc3)cc2)CCC1 [MK-2206, 8-[4-(1-aminocyclobutyl)phenyl]-9-phenyl-1,2,4-triazolo[3,4-f][1,6]naphthyridin-3 (2H)-one, dihydrochloride]
Conclusion (RPMI-8402 leukemic cells [1]): Synergistic (>0 implies synergistic interaction)
ZIP score (RPMI-8402 leukemic cells [1]): 8.51
Conclusion [2]: Synergistic (>0 implies synergistic interaction)
ZIP score [2]: 14.89
Conclusion [3]: Synergistic (>0 implies synergistic interaction)
ZIP score [3]: 16.97

CO[C@H]1C[C@@H]2CC[C@@H](C)[C@@](O)(O2)C(=O)C(=O)N2CCCC[C@H]2C(=O)O[C@H]([C@H](C)C[C@@H]2CC[C@@H](OC(=O)C(C)(CO)CO)[C@H](OC)C2)CC(=O)[C@H](C)/C=C(\C)[C@@H](O)[C@@H](OC)C(=O)[C@H](C)C[C@H](C)/C=C/C=C/C=C/1C [Temsirolimus, 42-[3-Hydroxy-2-(hydroxymethyl)-2-methylpropanoate]-rapamycin]
Conclusion (RPMI-8402 leukemic cells [1]): Synergistic (>0 implies synergistic interaction)
ZIP score (RPMI-8402 leukemic cells [1]): 18.03
Conclusion [2]: Synergistic (>0 implies synergistic interaction)
ZIP score [2]: 23.04
Conclusion [3]: Synergistic (>0 implies synergistic interaction)
ZIP score [3]: 23.81
